# Reference: article PMC2033546, “Effects of somatostatin analogue RC-160 and bombesin/gastrin-releasing peptide antagonists on the growth of human small-cell and non-small-cell lung carcinomas in nude mice” (British Journal of Cancer, 1994)
# Legend:
# [1] = test system: human SCLC cell line NCI-H69; assay: Growth of H69 SCLC xenografts in nude mice; format: in vivo, human (xenograft in male athymic nude mice)
# Excerpt: (§1) Br. J. Cancer (1994). 70, 886 892 ? Macmillan Press Ltd.. […] Bombesin GRP antagonists. […] Lung carcinoma is the leading cause of cancer-related deaths in the western world. It is estimated that in 1992 there were approximately 168,000 new cases of lung cancer in the US and that about 146,000 deaths occurred from this disease (Boring et al., 1992). […] The growth factors such as bombesin/gastrin-releasing pep- tide (GRP), epidermal growth factor, (EGF), transforming growth factor a (TGF-x) and insulin-like growth factor I(IGF-I) appear to play a role in the proliferation and pro- gression of lung cancer (Cuttitta et al., 1985; Veale et al., 1987; Minuto et al., 1988; Siegfried & Owens, 1988; Macaulay et al., 1990; Tateishi et al., 1991; Damstrup et al., 1992; Sethi & Rozengurt, 1992; Rabiasz et al., 1992; Moody & Cuttitta, 1993). […] Tpi is 2,3,4,9-tetrahydro- Correspondence: A.V. Schally (151). VA Medical Center, 1601 Per- dido Street. New Orleans, LA 70146. USA. Received 1 March 1994; and in revised form 5 July 1994. Br. J. Cancer (1994), 70, 886-892 C Macmillan Press Ltd., 1994 PEPTIDE ANALOGUES IN LUNG CANCER 8U7 lH-pyrido [3,4bjindol-3-carboxylic acid, a conformationally constrained secondary amine derivate of tryptophan and Tac is thiazolidine-4-carboxylic acid. […] Animals Male athymic NCr nulmu nude mice, approximately 6 weeks old on arrival, were obtained from the NCI (Bethesda, MD, USA) and maintained under pathogen-limited conditions. Cell lines The human SCLC cell line NCI-H69, was obtained from the American Type Cell Culture (ATCC), Rockville, MD, USA and the non-SCLC cell line NCI-H157, from Dr H. Oie, NCI-Navy Medical Oncology Branch, Bethesda, MD, USA. These cell lines were cultured in RPMI-1640 medium supple- mented with 4 mM L-glutamine, 50 units ml-I penicilln G sodium, SOigml-' streptomycin sulphate, 0.125pgml-' amphotericin B and 10% fetal bovine serum at 3TC in a humidified 95% air/5% carbon dioxide atmosphere. CeLs were passaged weekly and routinely monitored for myco- plasma contamination using a detection kit (Boehringer- Mannheim, Mannheim, Germany). All culture media com- ponents were purchased from Gibco (Grand Island, NY, USA). Receptor assays Preparation of membranes for receptor studies was described previously (Halmos et al., 1993). Iodinated EGF and IGF-I were purchased from Amersham (Arlington Heights, IL, USA). Radioiodination of other peptides and receptor bind- ing of EGF, IGF-I, somatostatin and bombesin/GRP were performed as previously described (Srkalovic et al., 1989; Szepeshazi et al., 1992). Complete displacement assays on tumour membranes were done only once because of the shortage of tumour material. The LIGAND PC computerised curve-fitting programme of Munson and Rodbard (1980) was used to determine the types of receptor binding, dissociation constant (Kd) values, and the maximal binding capacity (BDj) of receptors. In order to determine the specificity of the binding sites for radiolabelled EGF, IGF-I, somatostatin and bombesin to lung cancer membranes, various structuraly related and unrelated peptides were tested for their ability to inhibit the binding of the tracers. Histological procedure The histological procedures were the same as described previously (Szepeshazi et al., 1991, 1992). The number of mitotic and apoptotic cells per 1,000 cells was determined, and the percentage area of necrosis in tumour sections was examined using the point-counting method (Szepeshazi et al., 1991, 1992), in which the crossing points of an ocular net that coincide with necrosis in various sections are counted. Radiommunoassays Serum levels of growth hormone were determined by double- antibody radioimmunoassay (RIA) using materials supplied by the National Hormone and Pituitary Program of the National Institute of Diabetes and Digestive and Kidney Diseases (NIDDK).
# [2] = test system: non-SCLC cell line NCI-H157; assay: Growth of H157 non-SCLC xenografts in nude mice; format: in vivo, human (xenograft in male athymic nude mice); details: RC-160 100 µg/day, RC-3095 20 µg/day
# Excerpt: as §1
# [3] = test system: SCLC H69 tumours; assay: Histology (mitosis, apoptosis, necrosis) of SCLC H69 tumours; format: in vivo, human (xenograft in nude mice)
# Excerpt: as §1
# [4] = test system: EGF receptors in membranes of SCLC H69 tumours; assay: EGF receptor binding on H69 tumour membranes after in vivo treatment; parameters: species or system human; details: Table IV, Experiment I (SCLC-H69); tumour membranes after in vivo treatment; control 278; ten-point displacement in triplicate tubes, done once
# Excerpt: as §1, with “In order to determine the specificity of the binding sites for radiolabelled EGF, IGF-I, somatostatin and bombesin to lung cancer membranes, various structuraly related and unrelated peptides were tested for their ability to inhibit the binding of the tracers. Histological procedure The histological procedures were the same as described previously (Szepeshazi et al., 1991, 1992).” left out
# [5] = test system: EGF receptors in membranes of non-SCLC H157 tumours; assay: EGF receptor binding on H157 tumour membranes after in vivo treatment; parameters: species or system human
# Excerpt: as §1, with “Receptor assays Preparation of membranes for receptor studies was described previously (Halmos et al., 1993). Iodinated EGF and IGF-I were purchased from Amersham (Arlington Heights, IL, USA). Radioiodination of other peptides and receptor bind- ing of EGF, IGF-I, somatostatin and bombesin/GRP were performed as previously described (Srkalovic et al., 1989; Szepeshazi et al., 1992). Complete displacement assays on tumour membranes were done only once because of the shortage of tumour material. The LIGAND PC computerised curve-fitting programme of Munson and Rodbard (1980) was used to determine the types of receptor binding, dissociation constant (Kd) values, and the maximal binding capacity (BDj) of receptors. In order to determine the specificity of the binding sites for radiolabelled EGF, IGF-I, somatostatin and bombesin to lung cancer membranes, various structuraly related and unrelated peptides were tested for their ability to inhibit the binding of the tracers. Histological procedure The histological procedures were the same as described previously (Szepeshazi et al., 1991, 1992).” left out
# [6] = test system: IGF-I receptors in membranes of SCLC H69 tumours; assay: IGF-I receptor binding on H69 tumour membranes after in vivo treatment; parameters: species or system human; details: Table IV, Experiment I (SCLC-H69), control 294, done once
# Excerpt: as §1, with “Receptor assays Preparation of membranes for receptor studies was described previously (Halmos et al., 1993). Iodinated EGF and IGF-I were purchased from Amersham (Arlington Heights, IL, USA). Radioiodination of other peptides and receptor bind- ing of EGF, IGF-I, somatostatin and bombesin/GRP were performed as previously described (Srkalovic et al., 1989; Szepeshazi et al., 1992). Complete displacement assays on tumour membranes were done only once because of the shortage of tumour material. The LIGAND PC computerised curve-fitting programme of Munson and Rodbard (1980) was used to determine the types of receptor binding, dissociation constant (Kd) values, and the maximal binding capacity (BDj) of receptors. In order to determine the specificity of the binding sites for radiolabelled EGF, IGF-I, somatostatin and bombesin to lung cancer membranes, various structuraly related and unrelated peptides were tested for their ability to inhibit the binding of the tracers. Histological procedure The histological procedures were the same as described previously (Szepeshazi et al., 1991, 1992).” left out
# [7] = test system: IGF-I receptors in membranes of non-SCLC H157 tumours; assay: IGF-I receptor binding on H157 tumour membranes after in vivo treatment; parameters: species or system human
# Excerpt: as §1, with “Receptor assays Preparation of membranes for receptor studies was described previously (Halmos et al., 1993). Iodinated EGF and IGF-I were purchased from Amersham (Arlington Heights, IL, USA). Radioiodination of other peptides and receptor bind- ing of EGF, IGF-I, somatostatin and bombesin/GRP were performed as previously described (Srkalovic et al., 1989; Szepeshazi et al., 1992). Complete displacement assays on tumour membranes were done only once because of the shortage of tumour material. The LIGAND PC computerised curve-fitting programme of Munson and Rodbard (1980) was used to determine the types of receptor binding, dissociation constant (Kd) values, and the maximal binding capacity (BDj) of receptors. In order to determine the specificity of the binding sites for radiolabelled EGF, IGF-I, somatostatin and bombesin to lung cancer membranes, various structuraly related and unrelated peptides were tested for their ability to inhibit the binding of the tracers. Histological procedure The histological procedures were the same as described previously (Szepeshazi et al., 1991, 1992).” left out
# [8] = test system: Bombesin/GRP receptors in membranes of SCLC H69 tumours; assay: Bombesin/GRP receptor binding on H69 tumour membranes after in vivo treatment; parameters: species or system human; details: after in vivo treatment
# Excerpt: as §1, with “In order to determine the specificity of the binding sites for radiolabelled EGF, IGF-I, somatostatin and bombesin to lung cancer membranes, various structuraly related and unrelated peptides were tested for their ability to inhibit the binding of the tracers. Histological procedure The histological procedures were the same as described previously (Szepeshazi et al., 1991, 1992).” left out
# [9] = test system: Somatostatin receptors in membranes of SCLC H69 tumours; assay: Somatostatin receptor binding on H69 tumour membranes after in vivo treatment; parameters: species or system human; details: Table IV, Experiment I (SCLC-H69); tumour membranes after in vivo treatment; control 450; done once
# Excerpt: as §1, with “In order to determine the specificity of the binding sites for radiolabelled EGF, IGF-I, somatostatin and bombesin to lung cancer membranes, various structuraly related and unrelated peptides were tested for their ability to inhibit the binding of the tracers. Histological procedure The histological procedures were the same as described previously (Szepeshazi et al., 1991, 1992).” left out
# [10] = test system: EGF receptor levels in tumour membranes (pancreatic, prostatic, mammary and colorectal cancers); details: associated with inhibition of growth of pancreatic, ref Radulovic et al., 1991b, Szepeshazi et al., 1991, 1992, Pinski et al., 1994a; cited from earlier work
# Excerpt: (§2) Br. J. Cancer (1994). 70, 886 892 ? Macmillan Press Ltd..
# [11] = test system: EGF receptors; details: various cancer lines and cancer specimens; ref Liebow et al., 1992; cited from earlier work
# Excerpt: as §2
# [12] = test system: SCLC xenografts; details: nude mice; ref Alexander et al., 1988; cited from earlier work
# Excerpt: as §2
# [13] = test system: SCLC; details: in vitro; ref Carney et al., 1987; cited from earlier work
# Excerpt: as §2
substance,measurement,setting,value
"[D-Tpi6, Leu'3, *(CH2NH)Leu'4] bombesin (6- 14) [RC-3095]","Tumour volume, final","[1]; Table I, Experiment I (SCLC-H69), 5 weeks s.c. peritumoral, RC-160 100 µg/day, RC-3440, RC-3095, RC-3950-II 20 µg/day per animal, control 249.7 ? 182.3, means ? s.d., ten animals per group, *P<0.05 vs control",80.2 mm³
same,Tumour weight,"[1]; Table I, Experiment I (SCLC-H69), 5 weeks s.c. peritumoral, RC-160 100 µg/day, antagonists 20 µg/day per animal, control 0.27 ? 0.19, means ? s.d., *P<0.05 vs control",0.081 0.06* g
same,Tumour doubling time,"[1]; Table I, Experiment I (SCLC-H69), 5 weeks, RC-160 100 µg/day, antagonists 20 µg/day per animal s.c., control 7.5",12.2 days
same,Growth of H69 SCLC tumours (in words),"[1]; s.c. peritumorally, RC-160 100 µg, bombesin/GRP antagonists 20 µg per animal per day, 5 weeks",inhibited the growth of H69 SCLC tumours
same,Growth of H157 non-SCLC tumours (in words),"[2]; 4 weeks s.c., SB-75 100 µg/day per animal, vs control","No significant reduction in final tumour volume, tumour weight and tumour growth"
same,"Tumour volume, final","[2]; Table I, Experiment II (non-SCLC H157), 4 weeks s.c. peritumoral, SB-75 100 µg/day per animal, control 1580.3 ? 455.7, means ? s.d., ten animals per group, *P<0.05 vs control",913 mm³
same,Tumour doubling time,"[2]; Table I, Experiment II (non-SCLC H157), 4 weeks s.c., SB-75 100 µg/day, control 3.88",4.42 days
same,Extent of necrosis (in words),"[3]; SCLC H69 tumours, point-counting method, differences from control not significant statistically",less exten- sive
same,Apoptotic index,"[3]; Table II, Experiment I (SCLC H69), apoptotic cells per 1,000 cells, control 35.4 ? 2.6, means ? s.e.",36.5
same,Mitotic index,"[3]; Table II, Experiment I (SCLC H69), mitotic cells per 1,000 cells, control 37.9 ? 2.9, means ? s.e., *P < 0.05 vs control",28.8
same,EGF maximal binding capacity (Bmax),[4],102 fmol mg' protein
same,EGF maximal binding capacity (Bmax),"[5]; Table IV, Experiment II (non-SCLC H157), tumour membranes after in vivo treatment, control 249, done once",207 fmol mg' protein
same,EGF binding capacity on H157 tumours (in words),[5]; after in vivo treatment,no effect
same,IGF-I maximal binding capacity (Bmax),[6],300 fmol mg' protein
same,IGF-I maximal binding capacity (Bmax),"[7]; Table IV, Experiment II (non-SCLC H157), tumour membranes after in vivo treatment, control 257, done once",270 fmol mg' protein
same,IGF-I binding sites on H157 tumours (in words),[7]; after in vivo treatment,no effect
same,Concentration of receptors for bombesin/GRP on H69 tumours (in words),[8],reduced to non-detectable levels
same,Somatostatin maximal binding capacity (Bmax),[9],480 fmol mg-'protein
same,EGF receptor levels in tumour membranes (in words),[10],major decrease in EGF receptor levels
same,Effect on phosphorylation of EGF receptors (in words),[11],inhibits these effects
Bombesin,Effect on phosphorylation of EGF receptors (in words),[11],enhance the phosphorylation of EGF receptors
same,Effect on growth of SCLC xenografts (in words),[12],stimulates
same,Effect on clonal growth of SCLC and DNA synthesis (in words),[13],stimulates the clonal growth of SCLC and DNA synthesis in vitro
